Experimental data reported in ChEMBL document CHEMBL1933021, “Novel and selective spiroindoline-based inhibitors of Sky kinase” (Bioorg Med Chem Lett, 2012).
pIC50: −log10 of the molar value. Values after ≈ are worked out from the molar mass of the structure shown.

Legend:
[1] = biological target: Casein kinase I isoform delta (Homo sapiens, UniProt P48730); assay: Inhibition of CK1delta
Cytochrome P450 2D6 = Cytochrome P450 2D6 (Homo sapiens, UniProt P10635); assay: Inhibition of CYP2D6 using dextromethorphan as substrate; format: ADME
[2] = Aqueous solubility of compound at pH 6.5; format: physicochemical
[3] = biological target: Serine/threonine-protein kinase pim-2 (Homo sapiens, UniProt Q9P1W9); assay: Inhibition of Pim-2
Sequence of Serine/threonine-protein kinase pim-2 (Q9P1W9 whole entry): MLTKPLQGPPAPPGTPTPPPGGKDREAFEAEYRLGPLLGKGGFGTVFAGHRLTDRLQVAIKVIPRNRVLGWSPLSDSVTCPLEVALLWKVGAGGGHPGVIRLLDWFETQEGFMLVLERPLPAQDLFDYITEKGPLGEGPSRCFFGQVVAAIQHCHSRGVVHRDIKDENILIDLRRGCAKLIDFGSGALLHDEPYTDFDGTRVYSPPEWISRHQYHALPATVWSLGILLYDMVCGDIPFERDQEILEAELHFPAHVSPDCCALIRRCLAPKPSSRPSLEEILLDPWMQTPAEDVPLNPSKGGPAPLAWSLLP

[4] = biological target: Proto-oncogene tyrosine-protein kinase Src (Homo sapiens, UniProt P12931); assay: Inhibition of Src
Sequence of Proto-oncogene tyrosine-protein kinase Src (P12931 2-536 limits assumed): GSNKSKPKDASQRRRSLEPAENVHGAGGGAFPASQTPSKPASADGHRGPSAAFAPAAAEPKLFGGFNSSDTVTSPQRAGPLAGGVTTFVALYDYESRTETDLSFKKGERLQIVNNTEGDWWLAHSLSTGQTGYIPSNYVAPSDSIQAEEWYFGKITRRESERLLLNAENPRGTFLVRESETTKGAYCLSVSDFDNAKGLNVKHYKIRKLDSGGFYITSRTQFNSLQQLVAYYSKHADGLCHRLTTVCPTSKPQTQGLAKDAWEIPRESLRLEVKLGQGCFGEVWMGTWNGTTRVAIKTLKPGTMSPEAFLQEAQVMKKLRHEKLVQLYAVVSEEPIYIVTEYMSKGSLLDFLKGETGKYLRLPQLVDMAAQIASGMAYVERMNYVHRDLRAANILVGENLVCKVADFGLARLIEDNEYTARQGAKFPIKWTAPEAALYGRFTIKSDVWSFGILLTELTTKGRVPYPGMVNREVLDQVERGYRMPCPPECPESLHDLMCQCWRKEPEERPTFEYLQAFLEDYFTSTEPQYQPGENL

[5] = Oral bioavailability in Sprague-Dawley rat; format: ADME, organism-based; conditions: in vivo
[6] = biological target: Tyrosine-protein kinase Lck (Homo sapiens, UniProt P06239); assay: Inhibition of Lck
Sequence of Tyrosine-protein kinase Lck (P06239 whole entry): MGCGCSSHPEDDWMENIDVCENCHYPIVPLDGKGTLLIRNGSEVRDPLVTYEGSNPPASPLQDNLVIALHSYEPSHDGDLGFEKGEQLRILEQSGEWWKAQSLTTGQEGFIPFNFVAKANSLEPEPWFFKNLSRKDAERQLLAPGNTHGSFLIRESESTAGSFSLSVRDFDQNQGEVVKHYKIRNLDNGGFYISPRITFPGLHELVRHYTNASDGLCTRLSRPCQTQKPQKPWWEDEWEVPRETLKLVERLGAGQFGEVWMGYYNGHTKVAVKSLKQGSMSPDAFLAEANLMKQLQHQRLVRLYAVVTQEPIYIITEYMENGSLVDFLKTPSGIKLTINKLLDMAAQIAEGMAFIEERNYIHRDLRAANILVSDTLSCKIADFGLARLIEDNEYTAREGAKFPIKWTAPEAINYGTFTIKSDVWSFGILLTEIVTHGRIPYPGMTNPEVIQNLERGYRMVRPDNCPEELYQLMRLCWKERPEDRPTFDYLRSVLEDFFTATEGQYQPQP

[7] = Inhibition of PKA
[8] = Half life in po dosed Sprague-Dawley rat; format: ADME, organism-based; conditions: in vivo
[9] = biological target: T1, Inhibitor of nuclear factor kappa-B kinase subunit beta (Homo sapiens, UniProt O14920); assay: Inhibition of IKK-beta
T1 sequence (O14920 whole entry): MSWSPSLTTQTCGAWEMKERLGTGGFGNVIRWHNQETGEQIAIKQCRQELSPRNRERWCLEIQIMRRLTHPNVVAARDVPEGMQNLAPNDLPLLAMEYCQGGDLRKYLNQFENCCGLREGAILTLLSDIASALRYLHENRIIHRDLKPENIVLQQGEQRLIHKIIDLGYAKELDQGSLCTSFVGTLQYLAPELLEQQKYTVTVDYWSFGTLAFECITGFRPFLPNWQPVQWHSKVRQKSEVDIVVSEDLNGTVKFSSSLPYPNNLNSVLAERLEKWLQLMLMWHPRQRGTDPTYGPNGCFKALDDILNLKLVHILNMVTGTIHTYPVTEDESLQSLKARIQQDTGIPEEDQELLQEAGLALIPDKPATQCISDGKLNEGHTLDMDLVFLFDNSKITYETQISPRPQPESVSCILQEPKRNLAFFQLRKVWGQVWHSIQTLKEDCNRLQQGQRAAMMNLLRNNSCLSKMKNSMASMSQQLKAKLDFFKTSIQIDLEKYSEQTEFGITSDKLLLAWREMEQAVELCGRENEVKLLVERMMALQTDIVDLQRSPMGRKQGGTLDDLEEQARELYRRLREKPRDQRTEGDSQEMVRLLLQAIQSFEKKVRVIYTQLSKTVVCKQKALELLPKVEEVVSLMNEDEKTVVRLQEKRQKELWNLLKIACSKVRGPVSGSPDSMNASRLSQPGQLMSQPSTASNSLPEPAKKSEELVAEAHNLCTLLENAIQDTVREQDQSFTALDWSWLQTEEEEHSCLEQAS

[10] = Half life in human liver microsomes; format: ADME, Microsome
[11] = biological target: Serine/threonine-protein kinase Chk2 (Homo sapiens, UniProt O96017); assay: Inhibition of Chk2
Sequence of Serine/threonine-protein kinase Chk2 (O96017 whole entry): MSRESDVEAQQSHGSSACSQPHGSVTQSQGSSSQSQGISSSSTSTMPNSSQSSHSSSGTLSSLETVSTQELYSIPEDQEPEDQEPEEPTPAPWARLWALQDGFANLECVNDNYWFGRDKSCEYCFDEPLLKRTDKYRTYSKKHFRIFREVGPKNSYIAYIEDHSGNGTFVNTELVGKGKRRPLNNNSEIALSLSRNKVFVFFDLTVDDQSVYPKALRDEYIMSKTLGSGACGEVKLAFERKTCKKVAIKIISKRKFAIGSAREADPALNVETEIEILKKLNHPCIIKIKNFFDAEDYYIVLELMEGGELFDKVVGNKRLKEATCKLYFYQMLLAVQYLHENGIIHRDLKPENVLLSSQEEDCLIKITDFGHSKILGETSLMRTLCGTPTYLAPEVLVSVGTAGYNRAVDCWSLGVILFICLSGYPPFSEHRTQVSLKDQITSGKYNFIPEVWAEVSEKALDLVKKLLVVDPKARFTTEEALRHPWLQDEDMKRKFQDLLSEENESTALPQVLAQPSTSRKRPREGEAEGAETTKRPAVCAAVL

[12] = biological target: Serine/threonine-protein kinase PAK 4 (Homo sapiens, UniProt O96013); assay: Inhibition of Pak4
Sequence of Serine/threonine-protein kinase PAK 4 (O96013 whole entry): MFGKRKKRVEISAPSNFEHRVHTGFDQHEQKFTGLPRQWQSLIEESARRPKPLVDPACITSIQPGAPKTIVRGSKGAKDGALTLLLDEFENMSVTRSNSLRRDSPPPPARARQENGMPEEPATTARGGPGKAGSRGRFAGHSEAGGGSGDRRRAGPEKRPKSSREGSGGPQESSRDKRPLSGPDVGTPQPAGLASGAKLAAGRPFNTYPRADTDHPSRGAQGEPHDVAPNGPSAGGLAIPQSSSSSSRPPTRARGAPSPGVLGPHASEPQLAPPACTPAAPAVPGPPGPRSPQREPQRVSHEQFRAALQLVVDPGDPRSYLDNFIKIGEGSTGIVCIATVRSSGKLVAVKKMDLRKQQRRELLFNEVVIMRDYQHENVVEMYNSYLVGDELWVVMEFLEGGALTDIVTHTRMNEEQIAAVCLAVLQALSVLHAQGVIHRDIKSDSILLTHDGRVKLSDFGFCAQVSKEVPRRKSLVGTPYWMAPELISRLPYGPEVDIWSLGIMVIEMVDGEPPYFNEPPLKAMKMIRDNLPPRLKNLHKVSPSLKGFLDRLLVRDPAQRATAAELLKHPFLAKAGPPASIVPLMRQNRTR

[13] = Clearance in po dosed Sprague-Dawley rat; format: ADME, organism-based; conditions: in vivo
Rattus norvegicus = assay: Volume of distribution at steady state in po dosed Sprague-Dawley rat; format: ADME, organism-based; conditions: in vivo
[14] = Inhibition of CK2
[15] = biological target: MAP kinase-activated protein kinase 2 (Homo sapiens, UniProt P49137); assay: Inhibition of MAPKAP-2
Sequence of MAP kinase-activated protein kinase 2 (P49137 whole entry): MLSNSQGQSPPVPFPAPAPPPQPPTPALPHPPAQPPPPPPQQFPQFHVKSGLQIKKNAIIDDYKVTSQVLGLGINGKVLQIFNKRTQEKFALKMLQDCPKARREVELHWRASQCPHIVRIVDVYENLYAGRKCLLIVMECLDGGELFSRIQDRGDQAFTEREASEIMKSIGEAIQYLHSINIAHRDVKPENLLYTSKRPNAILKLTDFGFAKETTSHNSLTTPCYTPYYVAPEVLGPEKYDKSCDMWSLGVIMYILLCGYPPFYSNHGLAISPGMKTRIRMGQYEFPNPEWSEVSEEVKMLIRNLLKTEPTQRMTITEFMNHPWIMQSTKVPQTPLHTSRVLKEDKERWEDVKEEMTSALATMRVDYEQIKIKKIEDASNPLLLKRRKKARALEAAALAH

[16] = biological target: T2, Tyrosine-protein kinase Mer (Homo sapiens, UniProt Q12866); assay: Inhibition of Mer
T2 sequence (Q12866 whole entry): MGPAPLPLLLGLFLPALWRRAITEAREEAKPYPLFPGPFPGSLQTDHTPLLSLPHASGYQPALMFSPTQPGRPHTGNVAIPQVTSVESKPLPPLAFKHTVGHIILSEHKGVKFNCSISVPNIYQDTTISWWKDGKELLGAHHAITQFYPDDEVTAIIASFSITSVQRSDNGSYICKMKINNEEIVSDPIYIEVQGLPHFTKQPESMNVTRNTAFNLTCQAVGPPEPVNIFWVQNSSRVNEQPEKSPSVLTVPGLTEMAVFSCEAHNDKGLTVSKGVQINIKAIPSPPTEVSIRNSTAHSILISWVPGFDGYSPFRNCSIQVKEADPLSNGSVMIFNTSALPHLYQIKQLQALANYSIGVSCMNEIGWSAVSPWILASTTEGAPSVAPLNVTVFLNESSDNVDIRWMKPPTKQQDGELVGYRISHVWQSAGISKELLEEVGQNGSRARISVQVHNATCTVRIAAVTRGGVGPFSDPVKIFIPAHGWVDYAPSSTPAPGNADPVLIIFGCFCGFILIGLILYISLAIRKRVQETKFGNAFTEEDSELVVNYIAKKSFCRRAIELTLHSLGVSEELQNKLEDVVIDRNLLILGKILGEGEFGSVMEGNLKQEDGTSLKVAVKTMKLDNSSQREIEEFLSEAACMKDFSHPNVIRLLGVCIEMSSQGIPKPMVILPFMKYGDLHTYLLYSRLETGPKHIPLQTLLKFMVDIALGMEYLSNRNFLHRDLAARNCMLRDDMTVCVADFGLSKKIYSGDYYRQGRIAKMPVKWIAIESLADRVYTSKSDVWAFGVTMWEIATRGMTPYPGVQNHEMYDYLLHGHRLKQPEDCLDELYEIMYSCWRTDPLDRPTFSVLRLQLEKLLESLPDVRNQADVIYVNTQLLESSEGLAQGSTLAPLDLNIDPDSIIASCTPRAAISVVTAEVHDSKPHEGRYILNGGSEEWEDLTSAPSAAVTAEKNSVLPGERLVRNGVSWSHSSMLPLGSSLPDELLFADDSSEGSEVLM

[17] = biological target: High affinity nerve growth factor receptor (Homo sapiens, UniProt P04629); assay: Inhibition of TrkA
[18] = biological target: Serine/threonine-protein kinase TAO3 (Homo sapiens, UniProt Q9H2K8); assay: Inhibition of TAOK3
[19] = Permeability across human Caco2 cells; format: ADME, cell-based; conditions: Caco-2, read-out: permeability
CYP2D6 = CYP2D6 (Homo sapiens, UniProt P10635); assay: Inhibition of CYP2D6 using dextromethorphan as substrate at 3 uM; format: ADME; conditions: probe dextromethorphan
[20] = biological target: Vascular endothelial growth factor receptor 2 (Homo sapiens, UniProt P35968); assay: Inhibition of VEGFR2
[21] = biological target: RAC-alpha serine/threonine-protein kinase (Homo sapiens, UniProt P31749); assay: Inhibition of AKT1
[22] = biological target: Mitogen-activated protein kinase 1 (Homo sapiens, UniProt P28482); assay: Inhibition of Erk2
Insulin receptor = Insulin receptor (Homo sapiens, UniProt P06213); assay: Inhibition of INSR
Aurora kinase A = Aurora kinase A (Homo sapiens, UniProt O14965); assay: Inhibition of Aurora-A
[23] = biological target: Serine/threonine-protein kinase Sgk1 (Homo sapiens, UniProt O00141); assay: Inhibition of Sgk
[24] = biological target: Hepatocyte growth factor receptor (Homo sapiens, UniProt P08581); assay: Inhibition of HGFR
Sequence of Hepatocyte growth factor receptor (P08581 whole entry): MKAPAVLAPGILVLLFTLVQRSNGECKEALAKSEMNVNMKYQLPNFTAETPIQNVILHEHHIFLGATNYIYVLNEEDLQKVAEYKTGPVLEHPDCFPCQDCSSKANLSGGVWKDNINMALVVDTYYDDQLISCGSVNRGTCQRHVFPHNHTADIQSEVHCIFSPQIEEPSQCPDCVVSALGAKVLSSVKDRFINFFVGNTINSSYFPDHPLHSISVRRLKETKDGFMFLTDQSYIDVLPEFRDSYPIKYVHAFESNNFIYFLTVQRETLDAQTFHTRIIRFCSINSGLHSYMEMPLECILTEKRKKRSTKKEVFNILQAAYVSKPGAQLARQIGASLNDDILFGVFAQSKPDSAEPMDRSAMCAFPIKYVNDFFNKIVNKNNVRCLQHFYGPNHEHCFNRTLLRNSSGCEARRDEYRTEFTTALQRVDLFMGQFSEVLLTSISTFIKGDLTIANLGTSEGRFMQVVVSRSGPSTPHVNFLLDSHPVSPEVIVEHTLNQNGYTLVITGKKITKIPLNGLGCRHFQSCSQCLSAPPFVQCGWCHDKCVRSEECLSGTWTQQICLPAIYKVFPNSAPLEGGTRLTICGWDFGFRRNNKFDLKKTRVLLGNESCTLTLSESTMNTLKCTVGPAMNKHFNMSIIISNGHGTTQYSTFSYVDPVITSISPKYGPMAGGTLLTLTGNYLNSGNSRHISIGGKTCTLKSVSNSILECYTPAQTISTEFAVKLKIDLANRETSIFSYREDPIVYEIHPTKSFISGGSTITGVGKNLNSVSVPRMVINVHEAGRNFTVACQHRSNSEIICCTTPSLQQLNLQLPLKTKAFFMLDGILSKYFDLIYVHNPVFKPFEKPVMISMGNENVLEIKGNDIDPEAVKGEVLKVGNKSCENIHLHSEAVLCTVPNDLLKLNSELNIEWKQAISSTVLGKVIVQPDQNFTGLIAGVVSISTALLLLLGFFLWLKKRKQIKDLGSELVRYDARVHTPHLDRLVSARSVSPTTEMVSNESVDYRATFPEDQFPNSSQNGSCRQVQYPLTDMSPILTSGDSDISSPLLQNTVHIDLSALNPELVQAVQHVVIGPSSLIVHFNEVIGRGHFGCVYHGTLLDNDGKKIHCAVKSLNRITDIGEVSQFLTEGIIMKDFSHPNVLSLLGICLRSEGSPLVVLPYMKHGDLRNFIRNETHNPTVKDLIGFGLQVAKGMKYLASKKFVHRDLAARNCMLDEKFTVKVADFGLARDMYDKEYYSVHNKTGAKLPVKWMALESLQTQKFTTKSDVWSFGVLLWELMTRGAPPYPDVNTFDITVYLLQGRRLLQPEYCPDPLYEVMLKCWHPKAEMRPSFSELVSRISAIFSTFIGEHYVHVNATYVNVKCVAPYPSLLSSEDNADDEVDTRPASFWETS

Sequence of Casein kinase I isoform delta (P48730 whole entry, canonical isoform): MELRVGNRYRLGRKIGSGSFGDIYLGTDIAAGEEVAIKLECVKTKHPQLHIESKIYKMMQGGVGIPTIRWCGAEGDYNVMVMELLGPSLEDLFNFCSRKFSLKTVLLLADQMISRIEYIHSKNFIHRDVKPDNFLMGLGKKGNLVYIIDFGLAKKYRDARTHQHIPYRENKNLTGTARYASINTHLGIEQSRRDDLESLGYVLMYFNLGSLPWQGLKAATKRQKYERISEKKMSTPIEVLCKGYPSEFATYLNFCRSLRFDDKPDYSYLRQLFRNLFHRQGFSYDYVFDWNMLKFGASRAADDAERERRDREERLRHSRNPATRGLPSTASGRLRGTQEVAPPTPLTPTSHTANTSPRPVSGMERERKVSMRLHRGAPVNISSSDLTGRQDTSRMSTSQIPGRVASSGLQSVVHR

Compound | pIC50 [1] | solubility [2] [µM] | pIC50 [3] | pIC50 [4] | pIC50 [6] | pIC50 [7] | pIC50 [9] | half-life [10] [min] | pIC50 [11] | pIC50 [12] | pIC50 [14] | pIC50 [15] | pIC50 [16] | pIC50 [24] | other results
O=C(c1cc2ccc(F)cc2[nH]1)N1C[C@]2(CCN(C3CCNC3)C2)c2ccccc21 (stereo partly drawn) | 4.96 | 7.8 (≈ 3.16 µg/mL) | < 4.52 | < 4.52 | < 4.52 | < 4.52 | < 4.52 | 52 | < 4.52 | < 4.52 | < 4.52 | < 4.52 | 5.61 |  | pIC50 (Cytochrome P450 2D6): 6.18; bioavailability [5]: 11%; half-life [8]: 240 min; CL/F [13]: 5 mL/min/kg; Vdss (Rattus norvegicus): 1.6 L/kg
C[C@@H]1CCC(N2CC[C@]3(CN(C(=O)c4cc5ccc(F)cc5[nH]4)c4ccccc43)C2)CN1 (stereo partly drawn) | 5.76 | 11.7 (≈ 5.06 µg/mL) | < 4.52 | < 4.52 |  | 4.54 | < 4.52 | 44 | < 4.52 | < 4.52 | < 4.52 | < 4.52 | 6.01 |  | pIC50 [17]: < 4.52; pIC50 [18]: < 4.52; Papp [19]: 5.13 ×10⁻⁶ cm/s; inhibition at 3 µM (CYP2D6): 94%; pIC50 [20]: 4.66; pIC50 [21]: < 4.52; pIC50 [22]: < 4.52; pIC50 (Insulin receptor): < 4.52; pIC50 (Aurora kinase A): < 4.52; pIC50 [23]: < 4.52
O=C(c1cc2cc(F)ccc2[nH]1)N1C[C@]2(CCN(C3CCCNC3)C2)c2ccccc21 (stereo partly drawn) |  |  | < 4.52 | < 4.52 | < 4.52 | < 4.52 | < 4.52 |  | < 4.52 | < 4.52 | < 4.52 | < 4.52 | 5.16 | < 4.52 | 
C[C@@H]1CCC(N2CC[C@]3(CN(C(=O)c4cc5ccccc5[nH]4)c4ccccc43)C2)CN1 (stereo partly drawn) | 5.18 |  | < 4.52 | < 4.52 | < 4.52 | < 4.52 | < 4.52 |  | < 4.52 | < 4.52 | < 4.52 | < 4.52 | 5.63 | < 4.52 | 
